From patent publication US11970473B2, “Nootkatone derivatives and methods of using the same” (Arkansas State University—Jonesboro, priority 2021, dated 2024)
Values after ≈ are worked out from the molar mass of the structure shown.

Legend:
HOP-62 = assay: NCI-60 cancer screen; format: cell-based, human; settings: HOP-62, Non-Small Cell Lung Cancer; 10 μM
OVCAR-4 = assay: NCI-60 cancer screen; format: cell-based, human; settings: OVCAR-4, Ovarian Cancer; 10 μM
NCI-H460 = assay: NCI-60 cancer screen; format: cell-based, human; settings: NCI-H460, Non-Small Cell Lung Cancer; 10 μM
SW-620 = assay: NCI-60 cancer screen; format: cell-based, human; settings: SW-620, Colon Cancer; 10 μM
BT-549 = assay: NCI-60 cancer screen; format: cell-based, human; settings: BT-549, Breast Cancer; 10 μM
HCC-2998 = assay: NCI-60 cancer screen; format: cell-based, human; settings: HCC-2998, Colon Cancer; 10 μM
HCT-15 = assay: NCI-60 cancer screen; format: cell-based, human; settings: HCT-15, Colon Cancer; 10 μM
SK-MEL-5 = assay: NCI-60 cancer screen; format: cell-based, human; settings: SK-MEL-5, Melanoma; 10 μM
SNB-75 = assay: NCI-60 cancer screen; format: cell-based, human; settings: SNB-75, CNS Cancer; 10 μM
OVCAR-5 = assay: NCI-60 cancer screen; format: cell-based, human; settings: OVCAR-5, Ovarian Cancer; 10 μM
NCI-H322M = assay: NCI-60 cancer screen; format: cell-based, human; settings: Non-Small Cell Lung Cancer, 10 μM
OVCAR-8 = assay: NCI-60 cancer screen; format: cell-based, human; settings: OVCAR-8, Ovarian Cancer; 10 μM
S. aureus strains = assay: MIC, summary over S. aureus strains; format: cell-based; settings: Staphylococcus aureus; lowest MIC over S. aureus strains; read-out: minimum inhibitory concentration (MIC) value as low as
Experimental: Minimal inhibitory concentration (MIC) assay The standard microdilution method recommended by the Clinical and Laboratory Standards Institute (CLSI) was used to determine the MIC of the antibiotics. The starting concentration of compounds was 50 μg/ml and 2-fold dilution was done down the 96 honeycomb well plate column. The MIC assay was conducted in triplicates.

MOLT-4 = assay: NCI-60 cancer screen; format: cell-based, human; settings: MOLT-4, Leukemia; 10 μM
SNB-19 = assay: NCI-60 cancer screen; format: cell-based, human; settings: SNB-19, CNS Cancer; 10 μM
SK-MEL-28 = assay: NCI-60 cancer screen; format: cell-based, human; settings: SK-MEL-28, Melanoma; 10 μM
SF-295 = assay: NCI-60 cancer screen; format: cell-based, human; settings: SF-295, CNS Cancer; 10 μM
U251 = assay: NCI-60 cancer screen; format: cell-based, human; settings: U251, CNS Cancer; 10 μM
NCI-H522 = assay: NCI-60 cancer screen; format: cell-based, human; settings: NCI-H522, Non-Small Cell Lung Cancer; 10 μM
K-562 = assay: NCI-60 cancer screen; format: cell-based, human; settings: K-562, Leukemia; 10 μM
HL-60(TB) = assay: NCI-60 cancer screen; format: cell-based, human; settings: Leukemia, 10 μM
RXF 393 = assay: NCI-60 cancer screen; format: cell-based, human; settings: RXF 393, Renal Cancer; 10 μM
SN12C = assay: NCI-60 cancer screen; format: cell-based, human; settings: Renal Cancer, 10 μM
CAKI-1 = assay: NCI-60 cancer screen; format: cell-based, human; settings: CAKI-1, Renal Cancer; 10 μM
CCRF-CEM = assay: NCI-60 cancer screen; format: cell-based, human; settings: Leukemia, 10 μM
UO-31 = assay: NCI-60 cancer screen; format: cell-based, human; settings: UO-31, Renal Cancer; 10 μM
DU-145 = assay: NCI-60 cancer screen; format: cell-based, human; settings: DU-145, Prostate Cancer; 10 μM
UACC-62 = assay: NCI-60 cancer screen; format: cell-based, human; settings: UACC-62, Melanoma; 10 μM
LOX IMVI = assay: NCI-60 cancer screen; format: cell-based, human; settings: Melanoma, 10 μM
A498 = assay: NCI-60 cancer screen; format: cell-based, human; settings: A498, Renal Cancer; 10 μM
NCI-60 cancer cell lines = assay: NCI-60 cancer screen (whole panel); format: cell-based, human; settings: 10 μM
MCF7 = assay: NCI-60 cancer screen; format: cell-based, human; settings: MCF7, Breast Cancer; 10 μM
NCI-H23 = assay: NCI-60 cancer screen; format: cell-based, human; settings: NCI-H23, Non-Small Cell Lung Cancer; 10 μM
HT29 = assay: NCI-60 cancer screen; format: cell-based, human; settings: HT29, Colon Cancer; 10 μM
T-47D = assay: NCI-60 cancer screen; format: cell-based, human; settings: Breast Cancer, 10 μM
SK-OV-3 = assay: NCI-60 cancer screen; format: cell-based, human; settings: SK-OV-3, Ovarian Cancer; 10 μM
A549/ATCC = assay: NCI-60 cancer screen; format: cell-based, human; settings: Non-Small Cell Lung Cancer, 10 μM
M14 = assay: NCI-60 cancer screen; format: cell-based, human; settings: M14, Melanoma; 10 μM
UACC-257 = assay: NCI-60 cancer screen; format: cell-based, human; settings: UACC-257, Melanoma; 10 μM

C=C(C)[C@@H]1CC=C2c3sc(-c4ccc(O)cc4)nc3C[C@@H](C)[C@]2(C)C1 [Compound 15, 4-[(5R,5aS,7R)-7-isopropenyl-5,5a-dimethyl-5,6,7,8-tetrahydro-4H-benzo[g][1,3]benzothiazol-2-yl]phenol]
Growth Percent (HOP-62): 95.96% | Growth Percent (OVCAR-4): 95.29% | Growth Percent (NCI-H460): 104.69% | Growth Percent (SW-620): 103.38% | Growth Percent (BT-549): 115.53% | Growth Percent (HCC-2998): 100.46% | Growth Percent (HCT-15): 100.28% | Growth Percent (SK-MEL-5): 99.11% | Growth Percent (SNB-75): 87.74% | Growth Percent (OVCAR-5): 106.63% | Growth Percent (NCI-H322M): 102.27% | Growth Percent (OVCAR-8): 98.85% | MIC (S. aureus strains): 6.25 µg/mL (≈ 17.8 µM) | Growth Percent (MOLT-4): 105.32% | Growth Percent (SNB-19): 93.47% | Growth Percent (SK-MEL-28): 106.43% | Growth Percent (SF-295): 92.61% | Growth Percent (U251): 102.73% | Growth Percent (NCI-H522): 92.28% | Growth Percent (K-562): 92.07% | Growth Percent (HL-60(TB)): 100.82% | Growth Percent (RXF 393): 113.93% | Growth Percent (SN12C): 94.92% | Growth Percent (CAKI-1): 99.88% | Growth Percent (CCRF-CEM): 99.49% | Growth Percent (UO-31): 88.19% | Growth Percent (DU-145): 104.97% | Growth Percent (UACC-62): 93.02% | Growth Percent (LOX IMVI): 101.88% | Growth Percent (A498): 107.24% | Growth Percent, Delta (NCI-60 cancer cell lines; delta over panel): 16.54% | Growth Percent, Mean (NCI-60 cancer cell lines; mean over panel): 100.94% | Growth Percent, Range (NCI-60 cancer cell lines; range over panel): 34.01% | Growth Percent (MCF7): 89.98% | Growth Percent (NCI-H23): 94.71% | Growth Percent (HT29): 105.86% | Growth Percent (T-47D): 84.40% | Growth Percent (SK-OV-3): 109.13% | Growth Percent (A549/ATCC): 95.55% | Growth Percent (M14): 98.96% | Growth Percent (UACC-257): 100.07%
